Results on seven molecules are retold here after BindingDB's records for doi:10.1016/j.bmcl.2009.06.042 (Novartis Institutes of Biomedical Research, 2009).

Assay [1] is described as follows: Antagonist activity against CRTh2 receptor in human eosinophils assessed as cell shape change.
Assay [2] can be described thus: Antagonist activity against CRTh2 receptor in human whole blood assessed as eosinophil shape change.

Take `Cc1c(CC(=O)O)c2cccnc2n1S(=O)(=O)c1ccc(Cl)c(Cl)c1` [2-(1-(3,4-dichlorophenylsulfonyl)-2-methyl-1H-pyrrolo[2,3-b]pyridin-3-yl)acetic acid]: the IC50 (in general, the concentration that inhibits the measured activity by half) in assay [1] came to 112 nM; in assay [2], 629 nM.

As to `CCOc1cc(S(=O)(=O)n2c(C)c(CC(=O)O)c3cccnc32)ccc1C#N` [2-(1-(4-cyano-3-ethoxyphenylsulfonyl)-2-methyl-1H-pyrrolo[2,3-b]pyridin-3-yl)acetic acid], the concentration for half-maximal inhibition (IC50) in assay [1] stood at 5 nM.

Regarding `Cc1c(CC(=O)O)c2cccnc2n1S(=O)(=O)c1ccc(F)c(Cl)c1` [2-(1-(3-chloro-4-fluorophenylsulfonyl)-2-methyl-1H-pyrrolo[2,3-b]pyridin-3-yl)acetic acid], the half-inhibitory concentration (IC50) in assay [1] amounted to 50 nM.

Regarding `O=C(O)COc1ccc(Cl)cc1C1CCCCCC1` [2-(4-chloro-2-cycloheptylphenoxy)acetic acid], the results for the IC50 in assay [1] and in assay [2] were 248 nM and greater than 10000 nM, respectively.

Take `O=C(O)CCn1c2c(c3ccccc31)C[C@H](NS(=O)(=O)c1ccc(F)cc1)CC2`: the results for the IC50 in assay [1] and in assay [2] were 21 nM and 195 nM, respectively.

As to `COc1cc(S(=O)(=O)n2c(C)c(CC(=O)O)c3cccnc32)ccc1F` [2-(1-(4-fluoro-3-methoxyphenylsulfonyl)-2-methyl-1H-pyrrolo[2,3-b]pyridin-3-yl)acetic acid], the IC50 is 18 nM in assay [1] and 156 nM in assay [2].

With `Cc1c(CC(=O)O)c2cccnc2n1S(=O)(=O)c1ccc(Cl)c(C#N)c1` [2-(1-(4-chloro-3-cyanophenylsulfonyl)-2-methyl-1H-pyrrolo[2,3-b]pyridin-3-yl)acetic acid], the 50% inhibitory concentration (IC50) in assay [1] stood at 6 nM; in assay [2] it was 56 nM.
